{"source": "patent US10100030B2", "about": "(Kissei Pharmaceutical Co., Ltd., priority 2013, dated 2018)", "key": {"human NK1 receptor": {"biological_target": "human NK1 receptor (Homo sapiens (Human), UniProt P25103)", "sequence (P25103 whole entry)": "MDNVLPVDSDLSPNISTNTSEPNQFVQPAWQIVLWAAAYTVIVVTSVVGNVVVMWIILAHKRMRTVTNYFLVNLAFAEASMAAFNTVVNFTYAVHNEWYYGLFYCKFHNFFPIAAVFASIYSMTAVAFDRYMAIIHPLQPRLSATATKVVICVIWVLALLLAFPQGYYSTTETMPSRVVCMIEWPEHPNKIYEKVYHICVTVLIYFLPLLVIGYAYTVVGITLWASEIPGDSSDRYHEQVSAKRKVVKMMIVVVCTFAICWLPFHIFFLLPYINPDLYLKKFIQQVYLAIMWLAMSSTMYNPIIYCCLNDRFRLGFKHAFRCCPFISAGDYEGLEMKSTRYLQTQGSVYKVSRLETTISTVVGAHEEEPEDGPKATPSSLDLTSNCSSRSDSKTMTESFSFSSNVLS", "experiment": "Affinity for human NK1 receptor (125I-substance P receptor binding test)", "details": "membrane fraction of human NK1 receptor-expressing 293T cells; read-out: IC50 (concentration required for 50% inhibition of 125I-substance P binding)", "protocol": "Affinity for Human NK1 Receptor\n(3) Measurement of Binding Affinity to Human NK1 Receptor\n(3-1) Preparation of Membrane Fraction from Human NK1 Receptor-expressing Cells\nHuman NK1 receptor-expressing cells were prepared in a 175 cm^2 culture flask (Nippon Becton Dickinson). The formation of a complex of the human NK1 receptor expression plasmid and Lipofectamine 2000 was performed by calculating the culture area ratio and increasing the scale of the method described in the above 2-4 by the ratio. The human NK1 receptor-expressing cells were collected in a buffer solution for the membrane fraction preparation (50 mM Tris (Wako Pure Chemical). 120 mM sodium chloride (Wako Pure Chemical Industries), 5 mM potassium chloride (Wako Pure Chemical Industries), 1 mM ethylenediaminetetraacetic acid (Sigma), 0.002 mg/mL chymostatin (Peptide Institute), 0.04 mg/ bacitracin (Wako Pure Chemical Industries), 0.005 mg/mL phosphoramidon (Peptide Institute) and 0.5 mM phenylmethylsulfonyl fluoride (Wako Pure Chemical Industries), pH7.4) and centrifuged at 1,880 g for 10 minutes, and the cell sediment was suspended in the buffer solution for the membrane fraction preparation. After freezing and thawing the cells once, the cells were homogenized using a Dounce-type homogenizer (cooled on ice, 1000 rpm, 20 times). The homogenized cell suspension was centrifuged at 20,000 rpm for 10 minutes, and the supernatant was removed to obtain cell sediment. The cell sediment was suspended again in the buffer solution for the membrane fraction preparation and homogenized using a Dounce-type homogenizer (cooled on ice, 1000 rpm, 30 times). The cell suspension was centrifuged at 20,000 rpm for 10 minutes, and the supernatant was removed to obtain cell sediment. The same homogenization and centrifugation were repeated again, and final cell sediment was obtained. The final cell sediment was suspended in a buffer solution for the receptor binding test (50 mM Tris (Wako Pure Chemical Industries), 3 mM manganese chloride (Wako Pure Chemical Industries), 0.002 mg/mL chymostatin (Peptide Institute), 0.04 mg/bacitracin (Wako Pure Chemical Industries) and 0.02% bovine serum albumin (Sigma), pH 7.4), and the protein concentration was measured using BCA Protein Assay Kit (Pierce).\n(3-2) Receptor Binding Test\nThe buffer solution for the receptor binding test was dispensed to the wells of a 96-well assay plate (Greiner) at 22.5 μL/well. DMSO solutions of a test compound, which were prepared at an 80-time higher concentration using 100% dimethyl sulfoxide (DMSO), were added to the wells at 2.5 μL/well (final concentrations of 1 nM to 100 nM), and the solutions were mixed. As a radiolabeled ligand, ^125I-substance P (Substance P, [^125I]Tyr^8-, PerkinElmer) was used. ^125I-substance P was diluted with the buffer solution for the receptor binding test to a concentration resulting in […] and added to the 96-well assay plate, and the solutions were mixed. The membrane fraction prepared from the human NK1 receptor-expressing cells was diluted with the buffer solution for the receptor binding test to a concentration resulting in 8 to 10 μg/well, suspended until the suspension became in such a homogenous state that the suspension could flow through as 27G injection needle smoothly and then added to the 96-well assay plate at 150 μL/well. Then, the plate was incubated at room temperature for 60 minutes while shaking the plate. The reaction solutions were suction-filtered. through a multiscreen 96-well filter plate (Millipore) which had been pre-treated with 0.3% polyethyleneimine, and the reaction was terminated by washing with a washing solution (50 mM Tris and 0.02% bovine serum albumin, pH 7.4) four times. The bottom of the microplate was dried at 60° C., and then 100 μL/well of MicroScint 20 (PerkinElmer) was dispensed to the wells. The top of the plate was sealed with TopSeal A (PerkinElmer), and the plate was shaken for 5 to 10 minutes. […]"}, "NK1 receptor": {"biological_target": "NK1 receptor (Meriones unguiculatus (Mongolian jird) (Gerbillus unguiculatus), UniProt Q5DUB1)", "sequence (Q5DUB1 whole entry)": "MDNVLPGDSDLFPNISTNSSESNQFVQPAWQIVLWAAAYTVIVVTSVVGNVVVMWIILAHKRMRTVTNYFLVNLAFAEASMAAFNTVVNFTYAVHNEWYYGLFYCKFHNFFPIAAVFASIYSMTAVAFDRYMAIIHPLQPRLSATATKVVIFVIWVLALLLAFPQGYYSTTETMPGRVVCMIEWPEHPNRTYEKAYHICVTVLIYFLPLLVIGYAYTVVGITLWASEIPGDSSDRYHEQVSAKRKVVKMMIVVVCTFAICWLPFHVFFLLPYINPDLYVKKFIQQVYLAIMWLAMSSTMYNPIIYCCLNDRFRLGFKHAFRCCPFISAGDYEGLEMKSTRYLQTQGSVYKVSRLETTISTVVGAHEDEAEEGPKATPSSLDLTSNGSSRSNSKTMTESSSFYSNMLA", "experiment": "Effect on GR73632-induced foot-tapping", "type": "in vivo", "details": "0.3 mg/kg from the jugular vein, GR73632 after four hours, male gerbil", "protocol": "(1) Effect on Foot-tapping\nA male gerbil (Japan SLC) was anesthetized with isoflurane, and 0.3 mg/kg of a test compound was administered from the jugular vein. After four hours, GR73632 (5 pmol/5 μl), which is an NK1 receptor agonist, was administered into the cerebral ventricle at the part 1 mm lateral to and 4.5 mm below the bregma in the head, under anesthesia with isoflurane. After the administration, the gerbil was moved to an observation cage, and the foot-tapping period during five minutes after the recovery of the righting reflex was measured. The foot-tapping inhibition rate (%) of each test compound was calculated by the following equation. Foot-tapping inhibition rate (%)={1−(Foot-tapping period when test compound was administered)/(Foot-tapping period when solvent was administered)}×100 (2) Measurement of Drug Concentrations\nIn the table, Ex. No. means the Example number. Inhibition (%) is the foot-tapping inhibition rate, and Conc. (nM) is the drug concentration in the brain."}, "[1]": {"experiment": "Ferret pharmacokinetic test", "type": "in vivo", "details": "plasma, male ferret", "protocol": "Ferret Pharmacokinetic Test\nThe test compound solution was prepared by dissolving the test compound in a vehicle (50% N,N-dimethylformamide (Wako Pure Chemical Industries), 30% propylene glycol (Wako Pure Chemical Industries) and 4% 2-hydroxypropyl-β-cyclodextrin (Wako Pure Chemical Industries)). Under anesthesia with isoflurane 0.3 mg/kg of the test compound was intravenously administered to a male ferret (Marshall BioResources Japan) from the jugular vein. In the case of oral administration, 1 mg/kg of the test compound was orally administered to an awake animal. After the administration of the test compound, blood samples were taken sequentially from the brachial cephalic vein, and the concentrations of the test compound in the plasma were measured by a quantitative analysis using liquid chromatography-mass spectrometry (LC/MS).\nIn the tables, Ex. No. means the Example number. CLtot and Vss are the total body clearance and the steady-state volume of distribution, based on the plasma concentrations in the case of intravenous administration, respectively, Cmax, AUC and BA are the maximum plasma test compound concentration, the area under the plasma test compound concentration-time curve and the bioavailability, in the case of oral administration, respectively, […]"}}}
{"smiles": "Cc1cc(F)ccc1-c1cc(N2CCC(CC(=O)O)CC2)ncc1N(C)C(=O)C(C)(C)c1cc(C(F)(F)F)cc(C(F)(F)F)c1", "note": "[Example 1]", "values": [{"measurement": "IC50", "setting": "human NK1 receptor", "result": 2.11, "unit": "nM"}, {"measurement": "Inhibition (foot-tapping inhibition rate)", "setting": "NK1 receptor", "result": 100, "unit": "%"}, {"measurement": "clearance", "setting": "[1]; 0.3 mg/kg intravenous, read-out: CLtot (total body clearance)", "result": 0.75, "unit": "mL/min/kg"}, {"measurement": "Vd", "setting": "[1]; 0.3 mg/kg intravenous, read-out: Vss (steady-state volume of distribution)", "result": 0.336, "unit": "L/kg"}, {"measurement": "bioavailability", "setting": "[1]; 1 mg/kg oral, read-out: BA (bioavailability)", "result": 61, "unit": "%"}, {"measurement": "Cmax", "setting": "[1]; 1 mg/kg oral, read-out: Cmax (maximum plasma test compound concentration)", "result": 1270, "unit": "ng/mL"}]}
